Measurements published in US20240199546A1, “INHIBITORS OF SOLUTE CARRIER FAMILY 6A MEMBER 19 (SLC6A19) AND METHODS OF USE THEREOF” (Maze Therapeutics, Inc., priority 2022, published 2024).

Biological target: T1, human SLC6A19 and TMEM27 (Homo sapiens, UniProt Q695T7)
T1 construct: expressed in transfected cells
T1 sequence (Q695T7 1-634): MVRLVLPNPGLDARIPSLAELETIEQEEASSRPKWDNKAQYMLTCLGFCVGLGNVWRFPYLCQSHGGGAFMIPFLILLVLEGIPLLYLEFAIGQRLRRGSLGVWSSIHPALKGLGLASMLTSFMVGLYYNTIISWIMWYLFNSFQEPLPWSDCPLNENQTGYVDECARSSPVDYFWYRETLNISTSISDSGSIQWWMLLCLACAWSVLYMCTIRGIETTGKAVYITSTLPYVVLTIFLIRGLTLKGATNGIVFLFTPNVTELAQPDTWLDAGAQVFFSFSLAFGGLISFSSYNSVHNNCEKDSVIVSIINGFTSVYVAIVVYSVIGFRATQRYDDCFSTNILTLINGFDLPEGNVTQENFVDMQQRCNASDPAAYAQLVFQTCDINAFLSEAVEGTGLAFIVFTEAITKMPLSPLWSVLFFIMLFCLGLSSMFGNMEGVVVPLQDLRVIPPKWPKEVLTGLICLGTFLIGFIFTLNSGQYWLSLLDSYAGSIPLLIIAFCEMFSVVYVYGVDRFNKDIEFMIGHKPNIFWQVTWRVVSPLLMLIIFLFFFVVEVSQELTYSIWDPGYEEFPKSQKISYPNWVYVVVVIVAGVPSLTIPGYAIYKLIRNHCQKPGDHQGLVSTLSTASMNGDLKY
T1 sequence (Q9HBJ8 15-222 partner): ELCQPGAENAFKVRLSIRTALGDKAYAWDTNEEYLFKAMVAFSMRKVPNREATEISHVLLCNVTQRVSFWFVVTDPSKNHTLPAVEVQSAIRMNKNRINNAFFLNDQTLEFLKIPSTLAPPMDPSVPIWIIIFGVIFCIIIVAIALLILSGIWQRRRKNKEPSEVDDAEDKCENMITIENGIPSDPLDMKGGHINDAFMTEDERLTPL
Assay: Radiolabelled (3H) leucine uptake in CHO cells with doxycycline-inducible expression of human SLC6A19 and TMEM27 (Example B-1)
Assay type: cell-based
Conditions: CHO cells with doxycycline-inducible expression of human SLC6A19 and TMEM27, read-out: SLC6A19_Radioligand Uptake Assay IC50
Outline: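 CHO cells were induced with doxycycline for 18 h at 37 °C, washed in HBSS, then exposed to compounds for 1 h: 8-point, 3-fold dilutions in duplicate, 0.5% DMSO final. Uptake measured by scintillation counting after 2 h shaking. Activity normalized with positive control as 0% and DMSO as 100%.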

Row | SMILES | IC50 [nM]
1 | O=C(NCc1cc2cc(Cl)c(OCc3cscn3)cc2[nH]1)C12CCC(CC1)C2 [Compound 556, N-((5-chloro-6-(thiazol-4-ylmethoxy)-1H-indol-2-yl)methyl)bicyclo[2.2.1]heptane-1-carboxamide] | 1200
2 | O=C(NCc1cc2cc(Cl)c(OCc3cscn3)cc2[nH]1)C1CC2(CCC2)C1 [Compound 557, N-((5-chloro-6-(thiazol-4-ylmethoxy)-1H-indol-2-yl)methyl)spiro[3.3]heptane-2-carboxamide] | > 8240
3 | O=C(NCc1cc2cc(Cl)c(OCc3cscn3)cc2[nH]1)C1CC12CCC2 (stereo not drawn) [Compound 558, N-((5-chloro-6-(thiazol-4-ylmethoxy)-1H-indol-2-yl)methyl)spiro[2.3]hexane-1-carboxamide] | 1030
4 | O=C(NCc1cc2cc(Cl)c(OCc3cscn3)cc2[nH]1)C1(C(F)F)CC1 [Compound 559, N-((5-chloro-6-(thiazol-4-ylmethoxy)-1H-indol-2-yl)methyl)-1-(difluoromethyl)cyclopropane-1-carboxamide] | 196
5 | CC1CC(C(=O)NCc2cc3cc(Cl)c(OCc4cscn4)cc3[nH]2)C1 (stereo not drawn) [Compound 561, N-((5-chloro-6-(thiazol-4-ylmethoxy)-1H-indol-2-yl)methyl)-3-methylcyclobutane-1-carboxamide] | 570
6 | [2H]C([2H])([2H])C(=O)NCc1cc2cc(Cl)c(OCc3cc(C)no3)cc2[nH]1 [Compound 562, N-((5-chloro-6-((3-methylisoxazol-5-yl)methoxy)-1H-indol-2-yl)methyl)acetamide-2,2,2-d3] | 83.3
7 | Cc1cc(COc2cc3[nH]c(CNC(=O)C(F)F)cc3cc2Cl)on1 [Compound 563, N-((5-chloro-6-((3-methylisoxazol-5-yl)methoxy)-1H-indol-2-yl)methyl)-2,2-difluoroacetamide] | 82.2
8 | Cc1cc(COc2cc3[nH]c(CNC(=O)CC(F)(F)F)cc3cc2Cl)on1 [Compound 564, N-((5-chloro-6-((3-methylisoxazol-5-yl)methoxy)-1H-indol-2-yl)methyl)-3,3,3-trifluoropropanamide] | 174

Results, then the compound that gave them:

Row | IC50 [nM] | SMILES
9 | 286 | Cc1cc(COc2cc3[nH]c(CNC(=O)C4(C(F)F)CC4)cc3cc2Cl)on1 [Compound 565, N-((5-chloro-6-((3-methylisoxazol-5-yl)methoxy)-1H-indol-2-yl)methyl)-1-(difluoromethyl)cyclopropane-1-carboxamide]
10 | 146 | [2H]C([2H])([2H])C(=O)NCc1cc2cc(F)c(OCc3cscn3)cc2[nH]1 [Compound 566, N-((5-fluoro-6-(thiazol-4-ylmethoxy)-1H-indol-2-yl)methyl)acetamide-2,2,2-d3]
11 | 182 | O=C(NCc1cc2cc(F)c(OCc3cscn3)cc2[nH]1)C(F)F [Compound 567, 2,2-difluoro-N-((5-fluoro-6-(thiazol-4-ylmethoxy)-1H-indol-2-yl)methyl)acetamide]
12 | 337 | O=C(CC(F)(F)F)NCc1cc2cc(F)c(OCc3cscn3)cc2[nH]1 [Compound 568, 3,3,3-trifluoro-N-((5-fluoro-6-(thiazol-4-ylmethoxy)-1H-indol-2-yl)methyl)propanamide]
13 | 121 | O=C(NCc1cc2cc(F)c(OCc3cscn3)cc2[nH]1)C1(C(F)F)CC1 [Compound 569, 1-(difluoromethyl)-N-((5-fluoro-6-(thiazol-4-ylmethoxy)-1H-indol-2-yl)methyl)cyclopropane-1-carboxamide]
14 | 80.4 | [2H]C([2H])([2H])C(=O)NCc1cc2cc(Cl)c(OCc3cscn3)cc2[nH]1 [Compound 570, N-((5-chloro-6-(thiazol-4-ylmethoxy)-1H-indol-2-yl)methyl)acetamide-2,2,2-d3]
15 | 161 | Cc1cc(COc2cc3[nH]c(CNC(=O)C4(F)CC4)cc3cc2Cl)on1 [Compound 571, N-((5-chloro-6-((3-methylisoxazol-5-yl)methoxy)-1H-indol-2-yl)methyl)-1-fluorocyclopropane-1-carboxamide]
